# Columns and labels:
# Sprague Dawley rats = assay: Oral glucose lowering in overnight fasted Sprague Dawley rats (Example G); type: in vivo, rat; conditions: […]
# Experimental: Oral efficacy of Compound J was assessed in overnight fasted Sprague Dawley rats. […] At 1.5 h or 4 h post drug administration, a blood sample was taken from the tail vein and analyzed for blood glucose by means of an automated glucose analyzer (HemoCue, HemoCue Inc, Mission Viejo, Calif.).
# [1] = system: Zucker Diabetic Fatty (ZDF) rat; assay: Glucose lowering in the ZDF rat (Example W); type: in vivo; conditions: for Blood Glucose: 0.4% food admixture
# From the text: The Zucker Diabetic Fatty (ZDF) rat is widely used as a model for human NIDDM as the progression of the disease in these rodents is similar to that described for human […] patients. […] Clark J B, Palmer C J (1982) Diabetes 30: 126A Terrettaz J, Jeanrenaud B (1983) Endocrinology 112: 1346-1351.
# [2] = system: Zucker Diabetic Fatty rats; assay: Acute combination treatment of an insulin secretagogue and Compound J in the ZDF rat (Example X); type: in vivo
# Experimental: Experimental Protocol: Zucker Diabetic Fatty rats (9.5 weeks of age) were fasted for 5 hours starting at 8 am. The animals were then divided into 4 treatments groups with statistically similar baseline blood glucose levels. Test compounds were administered by oral gavage. The treatments were as shown below:
# One hour after saline or drug administration, all animals received a simulated meal in the form of an oral bolus of glucose (1 g/kg). Blood glucose was then monitored at regular time intervals for 3 hours. Test compounds were prepared as suspensions in 0.1% carboxymethylcellulose. Blood samples were obtained by nicking of a tail vein. Blood glucose was measured by means of a HemoCue glucose analyzer according to the manufacturer's instructions (HemoCue Inc., Mission Viejo, Calif.). Results are expressed as the mean ± standard error of the mean for all values.
# ZDF rats = assay: Chronic combination treatment of an insulin secretagogue and an FBPase inhibitor in the ZDF rat (Example Y); type: in vivo; conditions: maximal doses, 2 to 12 weeks
# From the text: Male ZDF rats are purchased at 7 weeks of age from Genetics Models Inc. (Indianapolis, Ind.). […] At 8 weeks of age, animals are divided into 4 treatment groups (n=8/group). The treatments are control, Compound J, glyburide, and the combination of Compound J and glyburide. […] Other parameters measured by standard assays include: lactate, glycerol, alanine, triglycerides, free fatty acids, ketone bodies, hepatic and muscle glycogen, cholesterol, VLDL, HDL, hemoglobin Alc, body weight, food and water intake, as well as other measures of carbohydrate, lipid, and protein metabolism. […] Differences between groups are evaluated ANOVA using an appropriate post hoc test. Results are considered significant with p<0.05.
# C57BL/KsJ db/db mice [3] = assay: Chronic combination treatment of insulin and Compound J in db/db mice (Example BB); type: in vivo, mouse; conditions: combination group versus insulin alone
# Experimental: Male C57BL/KsJ db/db mice were purchased at 5 weeks of age from Clea Japan, Inc. (Tokyo, Japan). […] At 19 weeks of age, animals were divided into 2 groups (n=6/group). […] Blood glucose levels in tail vein samples were measured by means of a Glucoloader-F, an automatic glucose analyzer, (A&T Co., Ltd., Tokyo, Japan).
# C57BL/KsJ db/db mice [4] = assay: Acute combination treatment of a biguanide and an FBPase inhibitor in db/db mice (Example DD); type: in vivo, mouse
# Experimental: Male C57BL/KsJ db/db mice were purchased at 5 weeks of age from Clea Japan, Inc. (Tokyo, Japan). The mice were maintained under standard vivarium conditions (24-26° C., 12-hour light cycle, 12-hour dark cycle) and received standard chow and water ad libitum. […] The treatment groups were control, compound J , metformin, and the combination of compound J and metformin. […] Food was removed after treatment. Blood glucose levels in tail vein samples were measured by means of a Glucoloader-F, an automatic glucose analyzer, (A&T Co., Ltd., Tokyo, Japan).
# Goto-Kakizaki rats = assay: Acute combination treatment of an alpha glucosidase inhibitor and an FBPase inhibitor in Goto-Kakizaki rats (Example EE); type: in vivo, rat
# Experimental: Goto-Kakizaki rats, an animal model of lean NIDDM, were purchased at 5 weeks of age from Charles River Japan, Inc. (Tokyo, Japan). The rats were maintained under standard vivarium conditions (24-26° C., 12-hour light cycle, 12-hour dark cycle) and received standard chow and water ad libitum. At 18 weeks of age, animals were divided into 4 groups (n=5/group). The treatment groups were control, Compound J, acarbose (Bayer, Japan), and the combination of Compound J and acarbose. All animals were given 1 g/kg of corn starch by oral gavage. […] Acarbose was administered orally at a dose of 1 mg/kg simultaneously with starch. Blood glucose levels in tail vein samples were measured by means of a Glucoloader-F, an automatic glucose analyzer, (A&T Co., Ltd., Tokyo, Japan).
# Db/db or ob/ob mice = assay: Acute combination treatment of a glycogen phosphorylase inhibitor and an FBPase inhibitor in db/db or ob/ob mice (Example FF); type: in vivo, mouse; conditions: 0.5 to 300 mg/kg p.o.
# Experimental: Db/db or ob/ob mice are purchased at 5 weeks of age from Jackson Laboratories (Bar Harbor, Me.). The mice are maintained under standard vivarium conditions (24-26° C., 12-hour light cycle, 12-hour dark cycle) and receive standard chow and water ad libitum. At more than 10 weeks of age, animals are divided into 4 groups (n=5 to 7/group). […] Food is made available after treatment. Blood glucose levels in tail vein samples are measured by means of standard manual or automated methods.
# [5] = system: streptozotocin-induced diabetic rat; assay: Chronic combination treatment of a fatty acid oxidation inhibitor and an FBPase inhibitor in the streptozotocin-induced diabetic rat (Example JJ); type: in vivo; conditions: etomoxir 3-300 mg/kg s.c., Compound J 0.2% w/w food admixture, 2-6 weeks
# Experimental: Male Sprague-Dawley rats (Charles Rivers Laboratories) weighing approximately 120 g at the beginning of the study are housed under standard vivarium conditions and fed standard chow (Purina 5001). Rats are rendered diabetic by injection of 55 mg/kg body weight of streptozotocin (STZ) in citrate buffer, pH 4.7. […] Drug treatment is continued for 2-6 weeks. Blood glucose levels are monitored at regular intervals during the treatment period. At the end of the study, rats are anesthetized and instrumented with jugular vein and carotid artery catheters. Hepatic glucose production is measured using a primed constant infusion of (^3H)-6-glucose. Blood samples are taken after two hours, and the specific activity of glucose measured by […]. Hepatic glucose production rater are calculated by standard methods.
# [6] = glyburide 100 mg/kg, Compound J 300 mg/kg p.o.
smiles,measurement,setting,value
"CCOC(=O)[C@H](C)NP(=O)(N[C@@H](C)C(=O)OCC)c1ccc(-c2nc(N)sc2CC(C)C)o1 [Compound J, 2-Amino-5-isobutyl-4-{2-[5-(N,N′-bis((S)-1-ethoxycarbonyl)ethyl)phosphonamido]furanyl}thiazole]","Glucose Lowering, %",Sprague Dawley rats; Compound J 10 mg/kg p.o.,66%
same,"Glucose Lowering, %",Sprague Dawley rats; Compound J 30 mg/kg p.o.,85%
same,glycemic control,[1],significantly improved glycemic control
same,Blood Glucose,[1]; Day 0,674 ± 20 mg/dL
same,Blood Glucose,[1]; Day 21,452 ± 40 mg/dL
same,blood glucose after oral glucose load (FIG. 1),[2]; [6],lowering blood glucose to below baseline levels
same,blood lactate levels (FIG. 2),[2]; [6],increase in blood lactate levels
same,AUC glucose,"[2]; initial 4 hours post drug, glyburide 100 mg/kg, Compound J 300 mg/kg p.o., oral glucose 1 g/kg",1121 ± 82 mg·h/dL
same,maximally efficacious dose,"[2]; pilot studies, ZDF rat",300 mg/kg
same,glycemic control,ZDF rats,more effective than glyburide as pancreatic function declines
same,decrease of the insulin dose required to reduce plasma glucose to target levels,C57BL/KsJ db/db mice [3],~40%
same,"Plasma Glucose, % of pretreatment value",C57BL/KsJ db/db mice [4]; after 2 hour,(70.2 +/− 14.6) %
same,Plasma Glucose,"C57BL/KsJ db/db mice [4]; after 2 hour, Compound J and/or metformin 150 mg/kg p.o.",448.6 ± 42.5 mg/dL
same,Plasma Glucose,C57BL/KsJ db/db mice [4]; after 4 hour,376.7 ± 39.9 mg/dL
same,"Plasma Glucose, % of pretreatment value",C57BL/KsJ db/db mice [4]; after 4 hour,(72.4 +/− 5.0) %
same,Plasma Glucose,C57BL/KsJ db/db mice [4]; after 6 hour,357.7 ± 40.4 mg/dL
same,"Plasma Glucose, % of pretreatment value",C57BL/KsJ db/db mice [4]; after 6 hour,(68.7 +/− 5.5) %
same,Plasma Glucose,C57BL/KsJ db/db mice [4]; after 8 hour,386.5 ± 43.1 mg/dL
same,"Plasma Glucose, % of pretreatment value",C57BL/KsJ db/db mice [4]; after 8 hour,(74.2 +/− 5.8) %
same,Plasma Glucose,C57BL/KsJ db/db mice [4]; before (0 hour),514.3 ± 23.0 mg/dL
same,"Plasma Glucose, % of pretreatment value",C57BL/KsJ db/db mice [4]; before (0 hour),(100.0 +/− 0.0) %
same,blood glucose lowering,"C57BL/KsJ db/db mice [4]; db/db mice, acute",lowered blood glucose significantly relative to controls
same,"Plasma Glucose, relative value (% of pre-treatment value)",Goto-Kakizaki rats; 0 min,(121.8 +/− 8.0) %
same,Plasma Glucose,"Goto-Kakizaki rats; 0 min, Compound J 10 mg/kg p.o. at −60 min, acarbose 1 mg/kg p.o. with starch",218.4 ± 19.9 mg/dL
same,Plasma Glucose,Goto-Kakizaki rats; 30 min after starch,245.2 ± 29.9 mg/dL
same,"Plasma Glucose, relative value (% of pre-treatment value)",Goto-Kakizaki rats; 30 min after starch,(135.2 +/− 9.2) %
same,Plasma Glucose,Goto-Kakizaki rats; 60 min after starch,251.0 ± 28.6 mg/dL
same,"Plasma Glucose, relative value (% of pre-treatment value)",Goto-Kakizaki rats; 60 min after starch,(138.5 +/− 6.2) %
same,Plasma Glucose,Goto-Kakizaki rats; 120 min after starch,182.8 ± 18.0 mg/dL
same,"Plasma Glucose, relative value (% of pre-treatment value)",Goto-Kakizaki rats; 120 min after starch,(101.8 +/− 7.2) %
same,Plasma Glucose,Goto-Kakizaki rats; 240 min after starch,144.6 ± 9.8 mg/dL
same,"Plasma Glucose, relative value (% of pre-treatment value)",Goto-Kakizaki rats; 240 min after starch,(81.7 +/− 6.7) %
same,"Plasma Glucose, relative value (% of pre-treatment value)",Goto-Kakizaki rats; −60 min,(100.0 +/− 0.0) %
same,Plasma Glucose,Goto-Kakizaki rats; −60 min relative to starch 1 g/kg,179.8 ± 15.2 mg/dL
same,blood glucose lowering,Db/db or ob/ob mice,significantly lower blood glucose relative to control values
same,Blood Glucose,[5],lowered significantly
